Experimental data taken from patent US10168342B2, “Lipid probes and uses thereof” (THE SCRIPPS RESEARCH INSTITUTE, priority 2015, dated 2019).

Legend:
Experiment in all cases: isoTOP-ABPP mapping of AEA-DA-modified peptides in Neuro2a cells
Type in all cases: cell-based
[1] = target: T1, AEA-DA-modified peptides in Neuro2a cells (Mus musculus, UniProt P09103); details: probe 100 μM, 12 replicates
T1 construct: endogenous in cells; host or cells: Neuro2a

[2] = target: T2, AEA-DA-modified peptides in Neuro2a cells (Mus musculus, UniProt P35505); details: AEA-DA-modified peptide FAH P35505 238-254, SEQ ID NO 40; probe 100 μM, 12 replicates
T2 construct: endogenous in cells; host or cells: Neuro2a

[3] = target: T3, AEA-DA-modified peptides in Neuro2a cells (Mus musculus, UniProt P47802); details: AEA-DA-modified peptide MTX1 P47802 89-104, SEQ ID NO 63; probe 100 μM, 12 replicates
T3 construct: endogenous in cells; host or cells: Neuro2a

[4] = target: T4, AEA-DA-modified peptides in Neuro2a cells (Mus musculus, UniProt P67778); details: AEA-DA-modified peptide PHB P67778 5-12, SEQ ID NO 85; probe 100 μM, 12 replicates
T4 construct: endogenous in cells; host or cells: Neuro2a

[5] = target: T5, AEA-DA-modified peptides in Neuro2a cells (Mus musculus, UniProt Q6PIC6); details: AEA-DA-modified peptide ATP1A3 Q6PIC6 350-376, SEQ ID NO 18; probe 100 μM, 12 replicates
T5 construct: endogenous in cells; host or cells: Neuro2a

[6] = target: T6, AEA-DA-modified peptides in Neuro2a cells (Mus musculus, UniProt Q791V5); details: AEA-DA-modified peptide MTCH2 Q791V5 91-112, SEQ ID NO 62; probe 100 μM, 12 replicates
T6 construct: endogenous in cells; host or cells: Neuro2a

[7] = target: T7, AEA-DA-modified peptides in Neuro2a cells (Mus musculus, UniProt Q8VDN2); details: AEA-DA-modified peptide ATP1A1 Q8VDN2 360-386, SEQ ID NO 17; probe 100 μM, 12 replicates
T7 construct: endogenous in cells; host or cells: Neuro2a

[8] = target: T8, AEA-DA-modified peptides in Neuro2a cells (Mus musculus, UniProt Q9CQX2); details: AEA-DA-modified peptide CYB5B Q9CQX2 138-145, SEQ ID NO 28; probe 100 μM, 12 replicates
T8 construct: endogenous in cells; host or cells: Neuro2a

[9] = target: T9, AEA-DA-modified peptides in Neuro2a cells (Mus musculus, UniProt Q9D771); details: AEA-DA-modified peptide TMEM206 Q9D771 247-260, SEQ ID NO 113; probe 100 μM, 12 replicates
T9 construct: endogenous in cells; host or cells: Neuro2a

[10] = target: T10, AEA-DA-modified peptides in Neuro2a cells (Mus musculus, UniProt Q9JKF7); details: AEA-DA-modified peptide MRPL39 Q9JKF7 154-166, SEQ ID NO 61; probe 100 μM, 12 replicates
T10 construct: endogenous in cells; host or cells: Neuro2a

[11] = target: T11, AEA-DA-modified peptides in Neuro2a cells (Mus musculus, UniProt Q9Z0V8); details: probe 100 μM, 12 replicates
T11 construct: endogenous in cells; host or cells: Neuro2a
T11 sequence (Q9Z0V8 whole entry): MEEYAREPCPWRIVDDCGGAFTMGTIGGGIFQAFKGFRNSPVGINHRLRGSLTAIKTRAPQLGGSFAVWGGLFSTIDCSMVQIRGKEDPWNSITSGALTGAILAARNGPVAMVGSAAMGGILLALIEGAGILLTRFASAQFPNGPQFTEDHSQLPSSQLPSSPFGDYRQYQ

T1 sequence (P09103 20-509): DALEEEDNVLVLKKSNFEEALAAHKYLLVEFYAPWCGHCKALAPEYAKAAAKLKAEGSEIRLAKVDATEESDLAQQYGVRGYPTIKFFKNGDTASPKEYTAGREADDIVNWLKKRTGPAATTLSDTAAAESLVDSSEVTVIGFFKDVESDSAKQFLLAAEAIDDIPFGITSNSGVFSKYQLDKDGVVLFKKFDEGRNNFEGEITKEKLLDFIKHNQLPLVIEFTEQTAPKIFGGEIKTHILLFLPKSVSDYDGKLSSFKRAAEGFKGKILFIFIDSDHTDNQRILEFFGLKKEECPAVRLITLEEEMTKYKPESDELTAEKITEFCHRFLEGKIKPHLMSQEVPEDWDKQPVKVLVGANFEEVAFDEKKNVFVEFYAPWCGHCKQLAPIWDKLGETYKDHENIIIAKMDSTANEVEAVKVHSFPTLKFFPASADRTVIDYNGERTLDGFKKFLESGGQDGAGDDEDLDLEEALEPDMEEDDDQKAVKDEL
T3 sequence (P47802 whole entry): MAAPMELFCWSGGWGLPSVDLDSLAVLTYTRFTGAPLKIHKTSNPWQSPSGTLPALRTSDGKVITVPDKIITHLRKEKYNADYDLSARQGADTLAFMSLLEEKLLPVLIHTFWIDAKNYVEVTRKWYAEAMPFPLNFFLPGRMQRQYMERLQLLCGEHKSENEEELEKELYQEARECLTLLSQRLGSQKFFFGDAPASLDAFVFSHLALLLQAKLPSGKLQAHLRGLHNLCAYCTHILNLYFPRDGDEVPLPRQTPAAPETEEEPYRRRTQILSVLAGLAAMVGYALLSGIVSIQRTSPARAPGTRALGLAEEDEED
T2 sequence (P35505 whole entry): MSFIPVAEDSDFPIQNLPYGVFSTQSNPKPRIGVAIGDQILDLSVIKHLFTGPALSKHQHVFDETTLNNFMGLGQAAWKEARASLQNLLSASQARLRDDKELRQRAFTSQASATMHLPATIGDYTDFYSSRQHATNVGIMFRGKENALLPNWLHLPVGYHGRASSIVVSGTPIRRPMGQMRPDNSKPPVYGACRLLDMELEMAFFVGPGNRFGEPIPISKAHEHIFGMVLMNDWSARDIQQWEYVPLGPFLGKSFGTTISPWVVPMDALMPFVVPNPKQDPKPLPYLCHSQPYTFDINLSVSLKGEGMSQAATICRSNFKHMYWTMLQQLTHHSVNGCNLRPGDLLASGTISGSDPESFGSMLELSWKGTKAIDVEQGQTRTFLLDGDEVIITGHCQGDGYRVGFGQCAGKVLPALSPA
T9 sequence (Q9D771 whole entry): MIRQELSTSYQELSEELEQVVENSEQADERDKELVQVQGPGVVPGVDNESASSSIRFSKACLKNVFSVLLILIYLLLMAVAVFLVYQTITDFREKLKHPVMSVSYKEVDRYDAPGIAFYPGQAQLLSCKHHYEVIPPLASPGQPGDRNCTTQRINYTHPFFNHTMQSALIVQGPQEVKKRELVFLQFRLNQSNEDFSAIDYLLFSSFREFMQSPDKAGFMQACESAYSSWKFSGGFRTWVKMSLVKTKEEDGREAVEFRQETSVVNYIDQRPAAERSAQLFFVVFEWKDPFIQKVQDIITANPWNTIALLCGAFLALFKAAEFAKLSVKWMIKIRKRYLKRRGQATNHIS
T6 sequence (Q791V5 whole entry): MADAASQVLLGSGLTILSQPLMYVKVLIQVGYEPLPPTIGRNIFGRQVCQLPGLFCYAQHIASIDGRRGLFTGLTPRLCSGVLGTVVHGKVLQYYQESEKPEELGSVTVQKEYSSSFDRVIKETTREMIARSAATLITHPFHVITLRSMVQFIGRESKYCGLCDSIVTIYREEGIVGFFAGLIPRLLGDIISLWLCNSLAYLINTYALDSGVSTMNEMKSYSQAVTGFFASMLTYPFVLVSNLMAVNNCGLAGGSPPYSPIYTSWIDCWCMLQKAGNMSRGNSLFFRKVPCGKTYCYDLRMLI
T4 sequence (P67778 whole entry): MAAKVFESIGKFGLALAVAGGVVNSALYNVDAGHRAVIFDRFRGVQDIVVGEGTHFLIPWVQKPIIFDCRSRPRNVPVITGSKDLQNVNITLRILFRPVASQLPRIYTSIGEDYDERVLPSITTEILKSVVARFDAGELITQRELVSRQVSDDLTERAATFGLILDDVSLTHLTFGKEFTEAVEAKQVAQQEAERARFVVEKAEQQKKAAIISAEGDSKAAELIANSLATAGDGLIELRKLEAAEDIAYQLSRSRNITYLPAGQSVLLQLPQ
T8 sequence (Q9CQX2 12-146): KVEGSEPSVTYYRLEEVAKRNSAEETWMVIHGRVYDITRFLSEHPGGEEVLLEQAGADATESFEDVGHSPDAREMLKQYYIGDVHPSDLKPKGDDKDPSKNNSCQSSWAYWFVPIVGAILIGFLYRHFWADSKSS

C#CCCCC1(CC/C=C\C/C=C\C/C=C\CCCC(=O)NCCO)N=N1 [AEA-DA, (5Z,8Z,11Z)-N-(2-hydroxyethyl)-14-(3-(pent-4-yn-1-yl)-3H-diazirin-3-yl)tetradeca-5,8,11-trienamide]
Times observed ([1]; AEA-DA-modified peptide P4HB P09103 135-165, SEQ ID NO 77): 3
Times observed ([1]; AEA-DA-modified peptide P4HB P09103 233-250, SEQ ID NO 78): 10
Times observed [2]: 8
Times observed [3]: 2
Times observed [4]: 2
Times observed [5]: 2
Times observed [6]: 2
Times observed [7]: 2
Times observed [8]: 2
Times observed [9]: 2
Times observed [10]: 4
Times observed ([11]; AEA-DA-modified peptide TIMM17A Q9Z0V8 13-36, SEQ ID NO 111): 9
Times observed ([11]; AEA-DA-modified peptide TIMM17A Q9Z0V8 85-107, SEQ ID NO 112): 4
